# Like-named read-outs stand apart in the source and are kept apart here. Starred links: 1 amine or outer side, 2 acyl side, 3 side chain; linkers in the order of their positions; H or OH if unused. Positions of bridges follow the written chain, without caps; N, C: chain ends. Non-standard residues stand in square brackets, D forms with d. Residues, ends and D or L forms follow the SMILES beside them. Groups on a side chain read outwards from the residue. *: point of attachment. Trp(1-Me) = Cn1cc(C[C@H](N)C(=O)O)c2ccccc21; C18 diacid = O=C(O)CCCCCCCCCCCCCCCCC(=O)*; C16 diacid = O=C(O)CCCCCCCCCCCCCCC(=O)*; γGlu = O=C(O)[C@H](CCC(=O)[*:2])N[*:1]; Nva = CCC[C@H](N)C(=O)O; AEEA = NCCOCCOCC(=O)O; Aoc = NCCCCCCCC(=O)O; Sar = CNCC(=O)O
# Test system: classical complement pathway
# Assay: In vitro haemolysis assay (inhibition of classical complement pathway)
# Type: cell-based, human
# Method in brief: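 Serially diluted compound (9 points) was preincubated 15 min at room temperature with diluted human serum, titrated per batch to give 70-90% maximal haemolysis, in Tris/casein buffer pH 7.4 with Mg2+/Ca2+. Antibody-sensitized sheep erythrocytes were then added for 30 min at 37° C, and the reaction was stopped with EDTA. Haemolysis was read at A405, with IC50 from 4PL fit.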
# [1] = Table 3, human serum, sensitized sheep red blood cells, read-out: IC50[nM], in vitro analysis of inhibition of hemolysis
# [2] = Table 5, different residues at position 3 of Ac-IC(1)XWQDWGEHRC(1)T-NH2, read-out: IC50, CP hemolysis
compound,measurement,setting,value
CC[C@H](C)[C@@H]1NC(=O)[C@@H](NC(=O)[C@H](Cc2ccccc2)NC(=O)[C@H](CCC(=O)O)NC(=O)[C@H](CO)NC(C)=O)CSSC[C@@H](C(=O)N[C@H](C(=O)N[C@@H](CCC(=O)O)C(=O)NCC(=O)N[C@@H](CCC(=O)O)C(=O)NCC(=O)NCC(=O)NCC(=O)N[C@@H](CCCCNC(=O)CC[C@H](NC(=O)CNC(=O)CC[C@H](NC(=O)CCCCCCCCCCCCCCC(=O)O)C(=O)O)C(=O)O)C(N)=O)[C@@H](C)O)NC(=O)[C@H](CCCNC(=N)N)NC(=O)[C@H](Cc2c[nH]cn2)NC(=O)[C@H](CCC(=O)O)NC(=O)CNC(=O)[C@H](Cc2c[nH]c3ccccc23)NC(=O)[C@H](CC(=O)O)NC(=O)[C@H](CCC(N)=O)NC(=O)[C@H](Cc2cn(C)c3ccccc23)NC1=O [Compound 131] (Ac-SEFCI[Trp(1-Me)]QDWGEHRCTEGEGGGK([γGlu-Gly-γGlu-C16 diacid])-NH2; disulfide 4-14),IC50,[1],< 100 nM
"N[C@@H](Cc1ccccc1)C(=O)O [Phenylalanine, reference compound]",IC50,[2],> 10000 nM
CC[C@H](C)[C@H](NC(=O)[C@H](C)NC(=O)[C@H](CO)NC(=O)CNC(=O)[C@H](CCC(=O)O)NC(C)=O)C(=O)N[C@H]1CSSC[C@@H](C(=O)N[C@H](C(N)=O)[C@@H](C)O)NC(=O)[C@H](CCCNC(=N)N)NC(=O)[C@H](Cc2c[nH]cn2)NC(=O)[C@H](CCC(=O)O)NC(=O)CNC(=O)[C@H](Cc2c[nH]c3ccccc23)NC(=O)[C@H](CC(=O)O)NC(=O)[C@H](CCC(N)=O)NC(=O)[C@H](Cc2c[nH]c3ccccc23)NC(=O)[C@H]([C@@H](C)CC)NC1=O [Compound 29] (Ac-EGSAICIWQDWGEHRCT-NH2; disulfide 6-16),IC50,[1],< 100 nM
CC[C@H](C)[C@H](NC(=O)[C@H](C)NC(=O)[C@H](CO)NC(=O)CNC(=O)[C@H](CCC(=O)O)NC(C)=O)C(=O)N[C@H]1CSSC[C@@H](C(=O)N[C@H](C(=O)N[C@@H](CCC(=O)O)C(=O)NCC(=O)N[C@@H](CCCCNC(=O)CC[C@H](NC(=O)CCCCCCCCCCCCCCC(=O)O)C(=O)O)C(N)=O)[C@@H](C)O)NC(=O)[C@H](CCCNC(=N)N)NC(=O)[C@H](Cc2c[nH]cn2)NC(=O)[C@H](CCC(=O)O)NC(=O)CNC(=O)[C@H](Cc2c[nH]c3ccccc23)NC(=O)[C@H](CC(=O)O)NC(=O)[C@H](CCC(N)=O)NC(=O)[C@H](Cc2c[nH]c3ccccc23)NC(=O)[C@H]([C@@H](C)CC)NC1=O [Compound 101] (Ac-EGSAICIWQDWGEHRCTEGK([γGlu-C16 diacid])-NH2; disulfide 6-16),IC50,[1],< 500 nM
"CC[C@H](C)[C@H](NC(C)=O)C(=O)N[C@H]1CSSC[C@@H](C(=O)N[C@@H](CO)C(N)=O)NC(=O)[C@H](CCCNC(=N)N)NC(=O)[C@H](Cc2c[nH]cn2)NC(=O)[C@H](CCC(=O)O)NC(=O)CNC(=O)[C@H](Cc2c[nH]c3ccccc23)NC(=O)[C@H](CC(=O)O)NC(=O)[C@H](CCC(N)=O)NC(=O)[C@H](Cc2c[nH]c3ccccc23)NC(=O)[C@H](C(C)C)NC1=O [G, reference compound] (Ac-ICVWQDWGEHRCS-NH2; disulfide 2-12)",IC50,"Table 4, valine 3 versus isoleucine 3 pairs, read-out: CP hemolysis IC50",180 nM
CC[C@H](C)[C@@H]1NC(=O)[C@@H](NC(=O)[C@H](Cc2ccccc2)NC(=O)[C@H](CCC(=O)O)NC(=O)[C@H](CO)NC(C)=O)CSSC[C@@H](C(=O)N[C@H](C(=O)N[C@@H](CCC(=O)O)C(=O)NCC(=O)N[C@@H](CCC(=O)O)C(=O)NCCCCCCCC(=O)N[C@@H](CCCCNC(=O)CC[C@H](NC(=O)CNC(=O)CC[C@H](NC(=O)CCCCCCCCCCCCCCCCC(=O)O)C(=O)O)C(=O)O)C(N)=O)[C@@H](C)O)NC(=O)[C@H](CCCNC(=N)N)NC(=O)[C@H](Cc2c[nH]cn2)NC(=O)[C@H](CCC(=O)O)NC(=O)CNC(=O)[C@H](Cc2c[nH]c3ccccc23)NC(=O)[C@H](CC(=O)O)NC(=O)[C@H](CCC(N)=O)NC(=O)[C@H](Cc2cn(C)c3ccccc23)NC1=O [Compound 136] (Ac-SEFCI[Trp(1-Me)]QDWGEHRCTEGE[Aoc]K([γGlu-Gly-γGlu-C18 diacid])-NH2; disulfide 4-14),IC50,[1],< 100 nM
"CCCC[C@H](N)C(=O)O [Norleucine, reference compound]",IC50,"Table 5, different residues at position 3 of Ac-IC(1)[…](1)T-NH2, read-out: IC50, CP hemolysis",480 nM
CC[C@H](C)[C@@H]1NC(=O)[C@@H](NC(=O)[C@H](Cc2ccccc2)NC(=O)[C@H](CCC(=O)O)NC(=O)[C@H](CO)NC(C)=O)CSSC[C@@H](C(=O)N[C@H](C(=O)N[C@@H](CCC(=O)O)C(=O)N[C@@H](CCCCN)C(=O)N[C@@H](CCC(=O)NCC(=O)NCC(=O)NCC(=O)N[C@@H](CCCCNC(=O)CC[C@H](NC(=O)CNC(=O)CC[C@H](NC(=O)CCCCCCCCCCCCCCCCC(=O)O)C(=O)O)C(=O)O)C(N)=O)C(=O)O)[C@@H](C)O)NC(=O)[C@H](CCCNC(=N)N)NC(=O)[C@H](Cc2c[nH]cn2)NC(=O)[C@H](CCC(=O)O)NC(=O)CNC(=O)[C@H](Cc2c[nH]c3ccccc23)NC(=O)[C@H](CC(=O)O)NC(=O)[C@H](CCC(N)=O)NC(=O)[C@H](Cc2cn(C)c3ccccc23)NC1=O [Compound 133] (Ac-SEFCI[Trp(1-Me)]QDWGEHRCTEK[γGlu]GGGK([γGlu-Gly-γGlu-C18 diacid])-NH2; disulfide 4-14),IC50,[1],< 100 nM
CC[C@H](C)[C@@H]1NC(=O)[C@@H](NC(=O)[C@H](Cc2ccccc2)NC(=O)[C@H](CCC(=O)O)NC(=O)[C@H](CO)NC(C)=O)CSSC[C@@H](C(=O)N(C)CC(=O)N[C@@H](CCC(=O)O)C(=O)N[C@@H](C)C(N)=O)NC(=O)[C@H](CCCCN)NC(=O)[C@H](Cc2c[nH]cn2)NC(=O)[C@H](CCC(=O)O)NC(=O)CNC(=O)[C@H](Cc2c[nH]c3ccccc23)NC(=O)[C@H](CC(=O)O)NC(=O)[C@H](CCC(N)=O)NC(=O)[C@H](Cc2cn(C)c3ccccc23)NC1=O [Compound 86] (Ac-SEFCI[Trp(1-Me)]QDWGEHKC[Sar]EA-NH2; disulfide 4-14),IC50,[1],< 100 nM
CC[C@H](C)[C@@H]1NC(=O)[C@@H](NC(=O)[C@H](Cc2ccccc2)NC(=O)[C@H](CCC(=O)O)NC(=O)[C@H](CO)NC(C)=O)CSSC[C@@H](C(=O)N(C)CC(=O)N[C@@H](CCC(=O)O)C(=O)NCC(=O)N[C@@H](CCC(=O)O)C(=O)NCCOCCOCC(=O)NCCOCCOCC(=O)N[C@@H](CCCCNC(=O)CC[C@H](NC(=O)CNC(=O)CC[C@H](NC(=O)CCCCCCCCCCCCCCC(=O)O)C(=O)O)C(=O)O)C(N)=O)NC(=O)[C@H](CCCNC(=N)N)NC(=O)[C@H](Cc2c[nH]cn2)NC(=O)[C@H](CCC(=O)O)NC(=O)CNC(=O)[C@H](Cc2c[nH]c3ccccc23)NC(=O)[C@H](CC(=O)O)NC(=O)[C@H](CCC(N)=O)NC(=O)[C@H](Cc2cn(C)c3ccccc23)NC1=O [Compound 127] (Ac-SEFCI[Trp(1-Me)]QDWGEHRC[Sar]EGE[AEEA][AEEA]K([γGlu-Gly-γGlu-C16 diacid])-NH2; disulfide 4-14),IC50,[1],< 100 nM
CC[C@H](C)[C@@H]1NC(=O)[C@@H](NC(=O)[C@H](Cc2ccccc2)NC(=O)[C@H](CCC(=O)O)NC(=O)[C@H](CO)NC(C)=O)CSSC[C@@H](C(=O)N(C)CC(=O)N[C@@H](CCC(=O)O)C(=O)NCC(=O)N[C@@H](CCC(=O)O)C(=O)NCCOCCOCC(=O)NCCOCCOCC(=O)NCCOCCOCC(=O)N[C@@H](CCCCNC(=O)CC[C@H](NC(=O)CNC(=O)CC[C@H](NC(=O)CCCCCCCCCCCCCCCCC(=O)O)C(=O)O)C(=O)O)C(N)=O)NC(=O)[C@H](CCCNC(=N)N)NC(=O)[C@H](Cc2c[nH]cn2)NC(=O)[C@H](CCC(=O)O)NC(=O)CNC(=O)[C@H](Cc2c[nH]c3ccccc23)NC(=O)[C@H](CC(=O)O)NC(=O)[C@H](CCC(N)=O)NC(=O)[C@H](Cc2cn(C)c3ccccc23)NC1=O [Compound 143] (Ac-SEFCI[Trp(1-Me)]QDWGEHRC[Sar]EGE[AEEA][AEEA][AEEA]K([γGlu-Gly-γGlu-C18 diacid])-NH2; disulfide 4-14),IC50,[1],< 100 nM
CC[C@H](C)[C@@H]1NC(=O)[C@@H](NC(=O)[C@H](Cc2ccccc2)NC(=O)[C@H](CCC(=O)O)NC(=O)[C@H](CO)NC(C)=O)CSSC[C@@H](C(=O)N[C@@H](CO)C(=O)N[C@@H](CCC(=O)O)C(=O)N[C@@H](C)C(N)=O)NC(=O)[C@H](CCCNC(=N)N)NC(=O)[C@H](Cc2c[nH]cn2)NC(=O)[C@H](CCC(=O)O)NC(=O)CNC(=O)[C@H](Cc2c[nH]c3ccccc23)NC(=O)[C@H](CC(=O)O)NC(=O)[C@H](CCC(N)=O)NC(=O)[C@H](Cc2cn(C)c3ccccc23)NC1=O [Compound 84] (Ac-SEFCI[Trp(1-Me)]QDWGEHRCSEA-NH2; disulfide 4-14),IC50,[1],< 100 nM
CC[C@H](C)[C@H](NC(C)=O)C(=O)N[C@H]1CSSC[C@@H](C(=O)N[C@H](C(N)=O)[C@@H](C)O)NC(=O)[C@H](CCCNC(=N)N)NC(=O)[C@H](Cc2c[nH]cn2)NC(=O)[C@H](CCC(=O)O)NC(=O)CNC(=O)[C@H](Cc2c[nH]c3ccccc23)NC(=O)[C@H](CCC(=O)O)NC(=O)[C@H](CCC(N)=O)NC(=O)[C@H](Cc2c[nH]c3ccccc23)NC(=O)[C@H]([C@@H](C)CC)NC1=O [Compound 16] (Ac-ICIWQEWGEHRCT-NH2; disulfide 2-12),IC50,[1],< 100 nM
CC[C@H](C)[C@@H]1NC(=O)[C@@H](NC(=O)[C@H](Cc2ccccc2)NC(=O)[C@H](CCC(=O)O)NC(=O)[C@H](CO)NC(C)=O)CSSC[C@@H](C(=O)N(C)CC(=O)N[C@@H](CCC(=O)O)C(=O)N[C@@H](C)C(N)=O)NC(=O)[C@H](CCCNC(=N)N)NC(=O)[C@H](Cc2c[nH]cn2)NC(=O)[C@H](CCC(=O)O)NC(=O)CNC(=O)[C@H](Cc2c[nH]c3ccccc23)NC(=O)[C@H](CCC(=O)O)NC(=O)[C@H](CCC(N)=O)NC(=O)[C@H](Cc2cn(C)c3ccccc23)NC1=O [Compound 83] (Ac-SEFCI[Trp(1-Me)]QEWGEHRC[Sar]EA-NH2; disulfide 4-14),IC50,[1],< 100 nM
"CCC[C@@H]1NC(=O)[C@@H](NC(=O)[C@@H](NC(C)=O)[C@@H](C)CC)CSSC[C@@H](C(=O)N[C@H](C(N)=O)[C@@H](C)O)NC(=O)[C@H](CCCNC(=N)N)NC(=O)[C@H](Cc2c[nH]cn2)NC(=O)[C@H](CCC(=O)O)NC(=O)CNC(=O)[C@H](Cc2c[nH]c3ccccc23)NC(=O)[C@H](CC(=O)O)NC(=O)[C@H](CCC(N)=O)NC(=O)[C@H](Cc2c[nH]c3ccccc23)NC1=O [Norvaline, reference compound] (Ac-IC[Nva]WQDWGEHRCT-NH2; disulfide 2-12)",IC50,[2],> 1000 nM

# Reference: US20220306695A1, “COMPSTATIN ANALOGUES AND THEIR MEDICAL USES” (priority 2019, published 2022)
